Values of other authors as cited in US6949582B1, “Method of relieving analgesia and reducing inflamation using a cannabinoid delivery topical liniment” (priority 1999, dated 2005).

What was measured:
[1] = rat hind-paw edema from carrageenan or PGE-1
[2] = system: interleukin, TNF, cytokine-induced genes; conditions: carrageenan-induced edema, up-regulation of cytokine-induced genes
[3] = system: cytokines such as TNFα; conditions: in vivo
[4] = live rats, carriers PEG, Transcutol, PG:EtOH 7:3
[5] = mice, given orally
[6] = system: peripheral CB1-like and CB2-like receptors; conditions: in vivo
[7] = in vivo
[8] = system: cell culture model
[9] = system: CB2; conditions: by down-modulating mast cell formation after injury
[10] = system: mast-cell activation
[11] = system: prostaglandin biosynthesis
[12] = system: human rheumatoid synovial cells
[13] = biological target: T1, peripheral CB1 receptor (Rattus norvegicus, UniProt P20272)
T1 construct: host or cells: rat, peripheral tissue (hindpaw) in vivo
T1 sequence (P20272 whole entry): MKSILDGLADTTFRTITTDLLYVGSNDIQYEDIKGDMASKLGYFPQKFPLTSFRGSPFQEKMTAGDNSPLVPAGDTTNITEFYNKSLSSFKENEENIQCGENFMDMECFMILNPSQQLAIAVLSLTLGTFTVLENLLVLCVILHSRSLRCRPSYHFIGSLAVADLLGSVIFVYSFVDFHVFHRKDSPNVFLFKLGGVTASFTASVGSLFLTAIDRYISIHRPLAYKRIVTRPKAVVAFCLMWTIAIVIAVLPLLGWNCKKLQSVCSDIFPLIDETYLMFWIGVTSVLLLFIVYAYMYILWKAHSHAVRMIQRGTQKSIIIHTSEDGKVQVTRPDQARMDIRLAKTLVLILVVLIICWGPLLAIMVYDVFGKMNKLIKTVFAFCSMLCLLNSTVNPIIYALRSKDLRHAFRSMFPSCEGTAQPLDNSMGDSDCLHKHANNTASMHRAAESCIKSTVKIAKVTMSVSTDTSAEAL

[14] = system: calcitonin gene-related peptide release; conditions: isolated hindpaw skin
[15] = peripheral, but not systemic, administration of 0.01 ng

Compound: caryophyllene
- anti-inflammatory activity [1]: demonstrate anti-inflammatory activity

Compound: CC1=CCC2CC1C2(C)C (stereo not drawn) [Alpha-pinene]
- anti-inflammatory activity [1]: demonstrate anti-inflammatory activity

Compound: O=c1cc(-c2ccc(O)cc2)oc2cc(O)cc(O)c12 [Apigenin]
- anti-inflammatory actions [2]: important anti-inflammatory actions

Compound: CCCCCCC(C)(C)c1cc(O)c2c(c1)OC(C)(C)[C@H]1CC=C(CO)C[C@H]21 [HU-211]
- inflammation caused by mobilization of cytokines such as TNFα [3]: supress inflammation

Compound: CCCCCc1cc(O)c2c(c1)OC(C)(C)[C@@H]1CC=C(C)C[C@@H]21 [Delta-8 THC]
- skin penetration by carrier ([4]; after 2 hrs): highest skin penetration of THC was observed from the Transcutol
- concentration in skin layers by carrier ([4]; after 24 hours): the Transcutol system delivered the highest THC concentration to the various layers of the skin

Compound: CCCCCCC(C)(C)c1cc(O)c2c(c1)OC(C)(C)[C@@H]1CC=C(C(=O)O)C[C@@H]21
- acute and chronic inflammatory changes [5]: supresses acute and chronic inflammatory changes

Compound: SR144528
- pain behavior produced by chemical damage to cutaneous tissue [6]: prolong and enhance the pain behavior

Compound: Cc1c(C(=O)NN2CCCCC2)nn(-c2ccc(Cl)cc2Cl)c1-c1ccc(Cl)cc1 [SR141716A]
- pain behavior produced by chemical damage to cutaneous tissue [6]: prolong and enhance the pain behavior

Compound: C=C(C)[C@@H]1CCC(C)=C[C@H]1c1c(O)cc(CCCCC)cc1O [cannabidiol]
- reduction of inflammation compared with aspirin [7]: more effective than aspirin
- neuroprotective properties compared with other antioxidants [8]: matched or surpassed other antioxidants

Compound: CCCCCCCCCCCCCCCC(=O)NCCO [Palmitoylethanolamide, palmitylethanolamide]
- carageenan-induced mechanical hyperalgesia and edema [9]: attenuates
- pain behavior produced by chemical damage to cutaneous tissue [6]: exerts a similar effect
- mast-cell activation and inflammatory responses [10]: inhibits mast-cell activation and reduces inflammatory responses

Compound: C=CCc1ccc(O)c(OC)c1 [eugenol]
- prostaglandin inhibition [11]: potent

Compound: COc1cc(-c2cc(=O)c3c(O)c(C/C=C(\C)CCC=C(C)C)c(O)cc3o2)ccc1O [Cannflavin A]
- potency of inhibition of prostaglandin E-2 production relative to aspirin [12]: 30 times

Compound: COc1cc(-c2cc(=O)c3c(O)c(CC=C(C)C)c(O)cc3o2)ccc1O [Cannflavin B]
- potency of inhibition of prostaglandin E-2 production relative to aspirin [12]: 30 times

Compound: CCCCCc1cc(O)c2c(c1)OC(C)(C)[C@@H]1CCC(C)=C[C@@H]21 [delta-9-tetrahydrocannabinol]
- analgesic effects compared with codeine (double blind controlled cross over study): analgesic effects equivalent to codeine
- analgesia (patients with cancer pain, second study): significant analgesia

Compound: CCCCC/C=C\C/C=C\C/C=C\C/C=C\CCCC(=O)NCCO [anandamide, arachidonyl-ethanolamide]
- hyperalgesia after its development ([13]; peripheral administration, reversed by CB1 antagonist SR 141716A): attenuated hyperalgesia
- edema [13, 15]: inhibited edema
- induction of hyperalgesia [13, 15]: inhibited the induction of hyperalgesia
- capsaicin-evoked release of calcitonin gene-related peptide [14]: inhibited
- pain behavior produced by chemical damage to cutaneous tissue [6]: attenuates the pain behavior
